pIC50: −log10 of the molar value. Where two headings read alike, the source gives them in different places.
Key:
ENO1 = molecular target: T1, ENO1 (Homo sapiens, UniProt P06733); test: Enolase activity, NADH-linked PK/LDH coupled fluorometric assay in native lysates of human cancer cells overexpressing ENO1; type: biochemical; conditions: for pIC50: lysates of D423 cells overexpressing ENO1
T1 construct: expressed in transfected cells; host or cells: D423-MG (ENO1-deleted human glioma) with ectopic ENO1
T1 sequence (P06733 whole entry): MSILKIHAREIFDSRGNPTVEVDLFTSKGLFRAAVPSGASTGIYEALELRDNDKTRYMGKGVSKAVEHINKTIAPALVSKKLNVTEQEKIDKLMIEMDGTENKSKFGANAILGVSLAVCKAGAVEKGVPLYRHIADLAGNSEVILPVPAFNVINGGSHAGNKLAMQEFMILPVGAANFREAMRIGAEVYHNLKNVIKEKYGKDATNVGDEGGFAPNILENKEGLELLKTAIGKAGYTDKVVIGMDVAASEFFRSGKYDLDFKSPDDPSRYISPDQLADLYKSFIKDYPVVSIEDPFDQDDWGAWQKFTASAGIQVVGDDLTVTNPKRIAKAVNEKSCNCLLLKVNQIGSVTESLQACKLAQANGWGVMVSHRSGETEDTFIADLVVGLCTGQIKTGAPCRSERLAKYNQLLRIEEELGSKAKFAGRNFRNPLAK
Description: We then determined Enolase inhibitory activity of (3R)-P1 and (3S)-P2 derived MethylSF2312 in native lysates from human cancer cells and E. coli overexpressing ENO1 and ENO2.
(§1) Native lysates of human cell lines were prepared using 20 mM Tris HCl, 1 mM EDTA, and 1 mM β-mercaptoethanol at pH 7.4 as described previously. Enolase activity was measured using two different methods, either by a fluorometric NADH-linked assay or a direct spectrophotometric assay via formation of PEP. In the fluorescent assay, enolase activity was measured via NADH oxidation in a pyruvate kinase–lactate dehydrogenase coupled assay as previously described. The assay is conducted in 10 mM KCl, 5 mM MgSO4, 100 mM triethanolamine at pH 7.4, with 400 µM NADH and 2 mM ADP. 2-Phosphoglycerate (2-PGA), pyruvate kinase (PK) and lactate dehydrogenase (LDH) are provided in excess, with the conversion of 2-PGA to PEP by enolase being rate limiting. PEP (with ADP) is a substrate of PK; pyruvate formed by this reaction is linked to NADH oxidation by LDH. Enolase activity is determined by measuring oxidation of NADH fluorescently by excitation at 340 nm and emission at 460 nm. The substrate concentration, if not otherwise indicated, was 5 mM 2-PGA. Fluorescence was measured using the Omega Fluorescence Plate Reader (BMG Labtech). Enolase activity was measured in native lysates of E. coli. Overnight grown saturated E. coli (DH5α) liquid culture was pelleted by centrifugation, washed and resuspended in 50 µL of lysis buffer which contains 150 mM NaCl, 50 mM Tris, 1mM EDTA, 2 mM DTT and 0.025% sodium azide. PMSF (10 mM stock solution) was then added to the lysate to make the final concentration 1 mM with 1% sodium deoxycholate. The suspension was incubated at 4 °C with constant mixing. The extract was centrifuged at 4 °C, 14,000 g for 15 min. Enolase activity in E. coli native lysates was measured directly by the appearance of PEP from 2-PGA via absorption at 240 nm. The assay medium was the same, except that all the auxiliary reagents (PK/LDH, NADH, ADP) are omitted. […]

ENO2 [1] = molecular target: T2, ENO2 (Homo sapiens, UniProt P09104); test: Enolase activity, NADH-linked PK/LDH coupled fluorometric assay in native lysates of human cancer cells overexpressing ENO2; type: biochemical; parameters: expressed in transfected cells; host or cells: D423-MG (ENO1-deleted human glioma) with ectopic ENO2
T2 sequence (P09104 whole entry): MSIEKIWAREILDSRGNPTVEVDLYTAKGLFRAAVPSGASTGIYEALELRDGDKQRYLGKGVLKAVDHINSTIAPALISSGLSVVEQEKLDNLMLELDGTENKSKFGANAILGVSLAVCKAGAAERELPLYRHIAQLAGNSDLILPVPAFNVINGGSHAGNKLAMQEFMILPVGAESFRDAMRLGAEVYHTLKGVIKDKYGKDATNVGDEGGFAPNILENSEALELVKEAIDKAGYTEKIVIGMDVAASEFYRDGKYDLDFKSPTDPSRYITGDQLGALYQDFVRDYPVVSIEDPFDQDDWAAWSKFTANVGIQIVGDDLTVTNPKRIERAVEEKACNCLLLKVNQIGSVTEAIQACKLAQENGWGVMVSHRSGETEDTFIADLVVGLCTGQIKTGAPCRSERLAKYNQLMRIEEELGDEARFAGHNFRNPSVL
Description: (§2) To compare the effects of isomeric mixtures of MethylSF2312 and SF2312 on Enolase activity, we measured the formation PEP coupled to the oxidation of NADH via LDH/PK on human cancer cells overexpressing ENO2 [4, 14]. […] Here, we favored the direct measurement of PEP absorbance, rather than of NADH, due to the high levels of endogenous NADH oxidase activity in bacterial lysates.
Native lysates of human cell lines were prepared using 20 mM Tris HCl, 1 mM EDTA, and 1 mM β-mercaptoethanol at pH 7.4 as described previously. Enolase activity was measured using two different methods, either by a fluorometric NADH-linked assay or a direct spectrophotometric assay via formation of PEP. In the fluorescent assay, enolase activity was measured via NADH oxidation in a pyruvate kinase–lactate dehydrogenase coupled assay as previously described. The assay is conducted in 10 mM KCl, 5 mM MgSO4, 100 mM triethanolamine at pH 7.4, with 400 µM NADH and 2 mM ADP. 2-Phosphoglycerate (2-PGA), pyruvate kinase (PK) and lactate dehydrogenase (LDH) are provided in excess, with the conversion of 2-PGA to PEP by enolase being rate limiting. PEP (with ADP) is a substrate of PK; pyruvate formed by this reaction is linked to NADH oxidation by LDH. Enolase activity is determined by measuring oxidation of NADH fluorescently by excitation at 340 nm and emission at 460 nm. The substrate concentration, if not otherwise indicated, was 5 mM 2-PGA. Fluorescence was measured using the Omega Fluorescence Plate Reader (BMG Labtech). Enolase activity was measured in native lysates of E. coli. Overnight grown saturated E. coli (DH5α) liquid culture was pelleted by centrifugation, washed and resuspended in 50 µL of lysis buffer which contains 150 mM NaCl, 50 mM Tris, 1mM EDTA, 2 mM DTT and 0.025% sodium azide. PMSF (10 mM stock solution) was then added to the lysate to make the final concentration 1 mM with 1% sodium deoxycholate. The suspension was incubated at 4 °C with constant mixing. The extract was centrifuged at 4 °C, 14,000 g for 15 min. Enolase activity in E. coli native lysates was measured directly by the appearance of PEP from 2-PGA via absorption at 240 nm. The assay medium was the same, except that all the auxiliary reagents (PK/LDH, NADH, ADP) are omitted. Assays were conducted in a 96-well plated format with the direct assay performed in UV-transmissible plates.

ENO2 [2] = molecular target: T2, ENO2; test: X-ray structure of ENO2 crystals soaked with inhibitor; type: binding; parameters: His tag (only implied by NiNTA purification); made in house; conditions: apo ENO2 crystals soaked with 2 mM compound; unbiased 2Fo-Fc omit map
Description: MethylSF2312 was co-crystallized with Human ENO2 to determine the configuration of the active compound in the active site. Apo crystals of ENO2 were prepared using published methods and were soaked in cryoprotectant containing the racemic mixture of MethylSF2312 for 16 h prior to freezing. The resulting co-crystal structure was resolved (Table 1), with four ENO2 homodimers in the asymmetric unit of the monoclinic crystal (PDB 5EU9).
Recombinant ENO2 protein was prepared using NiNTA affinity and size exclusion chromatography as described previously Apo crystals of Human Enolase 2 were prepared by streak seeding hanging drop solutions after mixing 0.5 μL 9.1 mg mL^−1 Enolase 2 with 0.5 μL reservoir solution (200 mM ammonium acetate, 100 mM Bis-Tris and 18–22% (w/v) PEG 3350). The hanging drops were incubated at room temperature above a 500 μL reservoir. Apo crystals were subsequently soaked overnight in 1 μL drops containing 100 mM Bis-Tis, 200 mM ammonium acetate, 32% (w/v) PEG 3350 at pH 6.5, supplemented with 2 mM racemate or pure enantiomer of MethylSF2312 compound, prior to flash freezing in liquid nitrogen. X-ray diffraction datasets were collected at 100 K using a wavelength of 1.11587 Å at the Advanced Light Source Beamline 8.3.1, equipped with ADSC Q315r detector. The diffraction images were indexed and integrated using iMOSFLM [19] and scaled using AIMLESS [20]. […]

[3] = tested on: D423 ENO1-deleted glioma cells; test: Proliferation assay of glioma cell lines by crystal violet staining; type: cell-based, human; conditions: for toxicity against ENO1-deleted versus ENO1-intact glioma cells (in words): six days of treatment, D423 ENO1-deleted vs D423 ENO1-rescued and LN319 ENO1-WT
Source text: The cell line D423-MG was provided by Dr. Bigner. The 1p36 homozygous deletion in D423-MG spans from the CAMTA1 to SLC25A33 genes, including ENO1. The generation of isogenic ENO1 and ENO2 ectopically rescued lines was described previously. The LN319 cell line was obtained from Cell Bank of The Department of Genomic Medicine at M.D. Anderson. Cells were routinely cultured in high glucose, glutamine, and pyruvate containing Dulbecco’s modified Eagle’s medium (DMEM) with 10% fetal bovine serum (FBS).
Cell proliferation of glioma cell lines was assayed through crystal violet staining. Cells were seeded at 1500 cells/well in 96-well plates, and after 24 h, were treated with dilution series of enolase inhibitors, with each treatment concentration in duplicate wells. At the indicated time, cells were fixed with 10% formalin and stained with crystal violet. Dye extraction was performed using 10% acetic acid solution, and absorbance was read at 595 nm.

E. coli (DH5α) = test: Kirby Bauer disc diffusion antibiotic sensitivity testing; type: cell-based, Escherichia coli; conditions: for zone of inhibition at 35 µg/disc: Escherichia coli, read-out: clear zone of growth inhibition
Description: Finally, the antibiotic activities of SF2312 and MethylSF2312 were compared in E. coli using the disc diffusion method. A 7 mm filter paper disc imbued with 35 µg of either SF2312 or MethylSF2312 was placed on an E. coli lawn on Muller-Hinton Agar. […] Of note, growth inhibition was only observed with the addition of glucose-6-phosphate (G6P).
Kirby Bauer disc diffusion antibiotic sensitivity testing was performed on Mueller Hinton II Agar (BD #221275) or BBL™ Columbia Agar with 5% Sheep Blood (BD #221165). An overnight overnight-grown saturated E. coli (DH5α) liquid culture was diluted (1:50) in water and streaked on the agar plate to form a bacterial lawn. D-Glucose-6-phosphate (Sigma #G7250) was made in 100 mM stock solution and added to the diluted bacteria to achieve 2 mM final concentration right before streaking the plate. A 7 mm Whatman™ 3MM Chr Chromatography filter paper disc (Whatman # 3030-6189) was imbued with 7 µL of an aqueous solution of inhibitor, placed on the streaked agar plate and incubated overnight at 37 °C.

[4] = molecular target: T3, Enolase in Escherichia coli lysates (Escherichia coli, UniProt P0A6P9); test: Enolase activity in E. coli native lysates, direct measurement of PEP formation at 240 nm; type: biochemical
T3 construct: Overnight grown saturated E. coli (DH5α) liquid culture was pelleted by centrifugation; endogenous in cells; host or cells: E. coli DH5α
T3 sequence (P0A6P9 whole entry): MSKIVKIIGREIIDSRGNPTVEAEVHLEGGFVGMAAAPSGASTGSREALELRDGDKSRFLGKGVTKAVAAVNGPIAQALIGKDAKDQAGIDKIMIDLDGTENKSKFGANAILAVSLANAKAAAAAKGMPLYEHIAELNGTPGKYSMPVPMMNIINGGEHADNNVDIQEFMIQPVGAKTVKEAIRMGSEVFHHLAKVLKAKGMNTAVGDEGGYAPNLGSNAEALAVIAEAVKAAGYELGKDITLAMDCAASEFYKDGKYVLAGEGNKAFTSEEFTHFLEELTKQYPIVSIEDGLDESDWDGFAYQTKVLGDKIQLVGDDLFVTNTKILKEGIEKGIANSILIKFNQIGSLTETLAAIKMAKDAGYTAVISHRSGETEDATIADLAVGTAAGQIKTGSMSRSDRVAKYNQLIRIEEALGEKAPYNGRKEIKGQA
Description: as §2
as §1, with “The extract was centrifuged at 4 °C, 14,000 g for 15 min.” left out, “nm.” for “nm. The assay medium was the same, except that all the auxiliary reagents (PK/LDH, NADH, ADP) are omitted.”

[5] = lysates of human cancer cells (D423) overexpressing ENO2, 5 mM 2-PGA, read-out: IC50 for ENO2

**Q.** What does the source list for `C[C@@]1(P(=O)(O)O)CC(O)N(O)C1=O` (stereo partly drawn) [(3R)-MethylSF2312]?
**A.** fold less potent than (3S)-MethylSF2312 (ENO1; ENO1, ratio of IC50 values): 2000 fold; pIC50 (ENO1): ~4.82; pIC50 (ENO2 [1]; lysates of D423 cells overexpressing ENO2, read-out: IC50 for ENO2): ~4.82; occupancy of the ENO2 active site in the electron density map (in words) (ENO2 [2]): no evidence of occupancy; toxicity towards ENO1-deleted glioma cells (in words) ([3]; even at 400 µM, D423 ENO1-deleted, 7 days): minimal toxicity

**Q.** Which results are given for `C[C@]1(P(=O)(O)O)CC(O)N(O)C1=O` (stereo partly drawn) [(3S)-MethylSF2312]?
**A.** pIC50 (ENO1): ~8.00; pIC50 (ENO2 [1]; [5]): ~8.00; zone of inhibition (in words) (E. coli (DH5α); 35 µg per disc, Muller Hinton Agar and Blood Agar, with G6P, overnight 37 °C): distinct zone of inhibition; fold greater Enolase inhibitory potency compared to (3R)-MethylSF2312 ([4]; E. coli lysates): ~ 2000 fold; occupancy of the ENO2 active site in the electron density map (in words) (ENO2 [2]): occupied in 3S,5S-configuration; concentration exhibiting toxicity to ENO1-deleted glioma cells ([3]; D423 ENO1-deleted, 7 days, crystal violet): ~ 2 µM

**Q.** Which results are given for `CC1(P(=O)(O)O)CC(O)N(O)C1=O` (stereo not shown) [MethylSF2312, (1,5-dihydroxy-3-methyl-2-oxopyrrolidin-3-yl)phosphonic acid]?
**A.** pIC50 (ENO2 [1]; [5]): ~8.00; zone of inhibition at 35 µg/disc (E. coli (DH5α); 7 mm disc with 35 µg, Muller-Hinton Agar, overnight, with glucose-6-phosphate): ~24 mm; pIC50 ([4]; direct PEP absorbance at 240 nm, read-out: IC50, Enolase in E. coli lysates): ~8.00; toxicity against ENO1-deleted versus ENO1-intact glioma cells (in words) [3]: selective toxicity

**Q.** With `O=C1C(P(=O)(O)O)CC(O)N1O` (stereo not shown) [SF2312, (1,5-dihydroxy-2-oxopyrrolidin-3-yl)phosphonic acid] as the compound, how does the pIC50 (ENO2 [1]) read?
**A.** ~8.00

**Q.** What about the zone of inhibition at 35 µg/disc (E. coli (DH5α)) of the same compound?
**A.** ~24 mm

**Q.** What about the pIC50 [4] of the same compound?
**A.** ~8.00

**Q.** What about the “toxicity against ENO1-deleted versus ENO1-intact glioma cells (in words)” value [3] of the same compound?
**A.** selective toxicity
